Assay results from patent publication US10919902B2, “Hetero-halo inhibitors of histone deacetylase” (Alkermes, Inc., priority 2015, dated 2021).

target: recombinant human HDACs (Homo sapiens); assay: HDAC enzymatic assay; format: biochemical; details: 5 nM HDAC enzyme, 5 h pre-incubation, 17 h reaction at 25° C.; isoform not given
Procedure: All recombinant human HDACs were purchased from BPS Bioscience. The substrate, FAM-TSRHK(AC)KL-CONH, was synthesized at NanoSyn. Final assay reactions contained 100 mM HEPES (pH 7.5), 50 mM KCl, 0.1% BSA, 0.01% Triton X-100, 1% DMSO, 1 uM substrate and 5 nM HDAC enzyme. Enzyme and compounds were pre-incubated at 25° C. for 5 hours and reactions were initiated by addition of substrate. 10 uL reactions were incubated for 17 hours at 25° C. and terminated by the addition of 40 uL of buffer containing 100 mM HEPES (pH 7.5), 0.1% BSA, 0.01% Triton X-100 and 0.05% SDS. Substrate and product peptides present in each sample were separated electrophoretically using the LabChip 3000 capillary electrophoresis instrument. Change in the relative fluorescence intensity of the substrate and product peaks reflects enzyme activity. Reaction progress was determined as the product to sum ratio (PSR):P/(S+P), where P is the peak height of the product peptide and S is the peak height of the substrate peptide. Reactions were performed in duplicate at 12 concentrations, (3× serial dilutions starting at 30 uM). IC50 values were calculated using a 4 Parameter Logistic Model.

Structure (SMILES)	IC50 [nM]
Cn1cc2c(n1)CN(C(=O)Nc1nc(-c3ccc(F)cc3)ccc1N)C2 [Compound 257]	100 to 500

same assay, conditions: 5 nM HDAC enzyme, 5 h pre-incubation, 17 h reaction at 25° C.; isoform not given; read-out: IC50

IC50 [nM]	Structure (SMILES)
> 5000	Nc1ccc(-c2cccnc2)nc1NC(=O)N1CCCC1 [Compound 221]
> 5000	Nc1ccc(-c2ccc(F)cc2)nc1NC(=O)N1CC2CN(CCF)CC2C1 (stereo not shown) [Compound 183]
100 to 500	CN1CCN(c2cc3c(cn2)CN(C(=O)Nc2nc(-c4ccc(F)cc4)ccc2N)C3)CC1 [Compound 160]
500 to 5000	Cc1cnc(C(=O)Nc2nn(-c3ccccc3)cc2N)s1 [Compound 126]
500 to 5000	CN(C)CCN1CC2CN(C(=O)Nc3nc(-c4ccc(F)cc4)ccc3N)CC2C1 (stereo not shown) [Compound 166]
500 to 5000	Nc1ccc(-c2ccc(F)cc2)nc1NC(=O)N1CC2CC(NC3COC3)CC2C1 (stereo not shown) [Compound 172]
> 5000	CN1CCN(C(=O)Nc2nn(-c3ccccc3)cc2N)CC1 [Compound 361]
> 5000	Cn1cc(CN2CCC3(CC2)CCN(C(=O)Nc2nc(-c4cccnc4)ccc2N)C3)cn1 [Compound 215]
> 5000	CN1CCN(C[C@@H]2[C@H]3CN(C(=O)Nc4nc(-c5ccc(F)cc5)ccc4N)C[C@@H]23)CC1 [Compound 269]
100 to 500	Nc1ccc(-c2ccc(F)cc2)nc1NC(=O)N1Cc2ccc(CN3CCC(F)(F)C3)cc2C1 [Compound 386]
100 to 500	Nc1ccc(-c2ccc(F)cc2)nc1NC(=O)N1Cc2cnc(N3CCOCC3)cc2C1 [Compound 150]
100 to 500	CN1CCC(c2cnc3c(c2)CN(C(=O)Nc2nc(-c4ccc(F)cc4)ccc2N)C3)CC1 [Compound 252]
100 to 500	Cc1cnc(C(=O)Nc2nc(-c3ccc(F)cc3)ccc2N)s1 [Compound 226]
> 5000	Nc1cn(-c2ccccc2)nc1NC(=O)N1CC2COCC2C1 (stereo not shown) [Compound 382]
500 to 5000	Nc1cn(-c2ccc(F)cc2)nc1NC(=O)N1CCN(C(=O)[C@@H]2C[C@H]2c2ccccc2)CC1 [Compound 125]
500 to 5000	CN1CC(Cn2ncc3c2CN(C(=O)Nc2nc(-c4ccc(F)cc4)ccc2N)C3)C1 [Compound 244]
> 5000	Nc1ccc(-c2cccnc2)nc1NC(=O)N1Cc2cc(F)cnc2C1 [Compound 218]
> 5000	Nc1ccc(-c2cccnc2)nc1NC(=O)c1cn2c(n1)CNCC2 [Compound 219]
500 to 5000	CN1CCN(Cc2ccc3c(c2)CN(C(=O)Nc2nn(-c4ccccc4)cc2N)C3)CC1 [Compound 353]
> 5000	Cn1cc(CN2CCCC3(CCN(C(=O)Nc4nn(-c5ccc(F)cc5)cc4N)C3)C2)cn1 (stereo not shown) [Compound 123]

The remaining lines, values behind:

Structure (SMILES)	IC50 [nM]
CN1CCc2sc(C(=O)Nc3nc(-c4ccco4)ccc3N)nc2C1 [Compound 163]	100 to 500
Nc1cn(-c2ccccc2)nc1NC(=O)N1CCC2(CCOCC2)C1 [Compound 407]	> 5000
CN1CCN(Cc2cccc3c2CN(C(=O)Nc2nc(-c4ccc(F)cc4)ccc2N)C3)CC1 [Compound 178]	> 5000
CN1CCN(c2cnc3c(c2)CN(C(=O)Nc2nc(-c4ccc(F)cc4)ccc2N)C3)CC1 [Compound 159]	100 to 500
COCc1ccc2c(c1)CN(C(=O)Nc1nc(-c3ccc(F)cc3)ccc1N)C2 [Compound 396]	100 to 500
Nc1ccc(-c2ccc(F)cc2)nc1NC(=O)N1Cc2cnc(C3CCOCC3)cc2C1 [Compound 240]	100 to 500
Nc1ccc(-c2ccc(F)cc2)nc1NC(=O)c1nc2c(s1)CCN(CCF)C2 [Compound 165]	100 to 500
Nc1ccc(-c2ccc(F)cc2)nc1NC(=O)N1CC2CC(N3CCOCC3)CC2C1 (stereo not shown) [Compound 181]	> 5000
CN1CC(n2cc3c(n2)CN(C(=O)Nc2nc(-c4ccc(F)cc4)ccc2N)C3)C1 [Compound 247]	100 to 500
Nc1ccc(-c2ccc(F)cc2)nc1NC(=O)N1C[C@@H]2[C@@H](CO)[C@@H]2C1 [Compound 238]	500 to 5000
Nc1ccc(-c2ccc(F)cc2)nc1NC(=O)N1CC2CC(N3CCC3)CC2C1 (stereo not shown) [Compound 143]	500 to 5000
Nc1ccc(-c2ccccc2)nc1NC(=O)C1CCN(C2COC2)CC1 [Compound 381]	> 5000
CC(=O)N1CCC(C(=O)Nc2nn(-c3ccccc3)cc2N)CC1 [Compound 358]	> 5000
